Results published in patent US4610981A, “N-[(1H-imidazol-1-yl) and (1H-1,2,4-triazol-1-yl)-alkyl]benzenesulfonamides and thromboxane synthetase/antihypertensive compositions” (priority 1985, dated 1986).
Structures can show the parent of a compound that is named as a salt. Where two headings read alike, the source gives them in different places.

What was measured:
[1] = Hypotensive activity in spontaneously hypertensive rats, mean arterial blood pressure (Chan and Poorvin); type: in vivo, spontaneously hypertensive rats of the Okamoto strain; details: oral gavage, 100 mg/kg or less, two doses 24 hours apart, measured 28 hours after initial dose; average MABP of rats used 160±1.5 mm Hg
Experimental: The novel compounds of the present invention also are active antihypertensive agents and were tested for hypotensive activity by the method of P. S. Chan and D. Poorvin, Clinical and Experimental Hypertension, 1(6), 817-830 (1979). Male, 16 week old, spontaneously hypertensive rats of the Okamoto strain, from Taconic Farms, Germantown, N.Y., having an average mean arterial blood pressure of 160±1.5 mm of mercury are used in the test. One to three rats are used per test compound. A rat is dosed by gavage with a test compound, suspended in 2% pre-boiled starch at a concentration of 50 mg/ml, at a dose of 100 mg/kg of body weight or less, with 0.9% sodium chloride loading at a dose of 25 ml/kg of body weight. A second identical dose of the test compound, without sodium chloride loading, is given 24 hours later. At 28 hours after the initial dose the mean arterial blood pressure is measured by the method of Chan and Poorvin, vide supra. The procedure is repeated in a second and third rat when necessary.

thromboxane synthetase = target: T1, thromboxane synthetase (Rattus norvegicus, UniProt P49430); assay: Inhibition of thromboxane (TXA2) formation in SHR platelets, TXB2 measured by radioimmunoassay; type: cell-based, Okamoto-Aoki spontaneously hypertensive rats (SHR); details: read-out: % Inhibition (of TXB2 formation)
T1 construct: The platelets were isolated by centrifuging the PRP for 10 minutes; endogenous in cells; host or cells: washed platelets from arterial blood of Okamoto-Aoki spontaneously hypertensive rats (animals from Taconic Farms)
T1 sequence (P49430 1-533): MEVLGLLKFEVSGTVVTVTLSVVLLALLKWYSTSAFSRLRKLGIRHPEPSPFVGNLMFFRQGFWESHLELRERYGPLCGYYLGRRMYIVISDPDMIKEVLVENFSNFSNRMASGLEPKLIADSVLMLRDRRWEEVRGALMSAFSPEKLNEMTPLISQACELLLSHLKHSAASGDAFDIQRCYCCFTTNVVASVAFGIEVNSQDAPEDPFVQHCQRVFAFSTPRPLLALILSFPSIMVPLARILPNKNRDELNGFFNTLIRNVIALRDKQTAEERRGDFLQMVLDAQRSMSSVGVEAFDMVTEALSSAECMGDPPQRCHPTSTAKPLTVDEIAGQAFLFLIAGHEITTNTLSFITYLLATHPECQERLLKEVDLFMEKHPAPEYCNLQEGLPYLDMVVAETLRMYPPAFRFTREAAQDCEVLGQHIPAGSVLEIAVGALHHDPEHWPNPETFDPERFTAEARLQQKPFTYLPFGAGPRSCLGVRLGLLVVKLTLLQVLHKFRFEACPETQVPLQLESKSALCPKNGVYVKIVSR
Experimental: The inhibition of thromboxane (TXA2) formation was studied by determining the concentration of thromboxane B2 (TXB2), the stable hydrolysis product of TXA2. […] The blood was diluted with 3 ml cold saline and centrifuged at room temperature for 15 minutes at 460×g. The platelet rich plasma (PRP) was separated. The platelets were isolated by centrifuging the PRP for 10 minutes at 1060×g and were washed in 4 ml cold oxygenated Krebs phosphate buffer, pH 7.4. The chilled platelets recovered from centrifuging at 800×g for 10 minutes were resuspended in oxygenated Krebs phosphate buffer and diluted to contain 4.5-6.0×10^4 platelets/μl. Assay samples, prepared on ice, contained 200 μl platelet suspension, 50 μl saline, and 50 μl vehicle or drug under study. The samples were incubated for 10 minutes at 37° C. in a metabolic shaker. The reaction was terminated by immersing the tubes in an ice bath and adding 50 μl of 0.5M citric acid. The samples were centrifuged for 10 minutes in a refrigerated centrifuge and the supernatants thus obtained were decanted and stored at -20° C.

[2] = canines; J. Cardiovascular Pharmacology, 4, 129 (1982); cited from earlier work
[3] = guinea pigs; literature; cited from earlier work
[4] = rabbits; literature; cited from earlier work
[5] = dose 10^-4 M, SHR washed platelets, 10 minutes at 37° C.

| SMILES | MABP in mm Hg [1] | inhibition at 100 µM (thromboxane synthetase; [5]) | further results |
| --- | --- | --- | --- |
| O=S(=O)(NCCn1ccnc1)c1ccc(Br)cc1 [4-Bromo-N-[2-(1H-imidazol-1-yl)ethyl]benzenesulfonamide] | 125 mm Hg |  |  |
| O=S(=O)(NCCCn1ccnc1)c1ccc(Br)cc1 [4-Bromo-N-[3-(1H-imidazol-1-yl)propyl]benzenesulfonamide] | 126 mm Hg |  | inhibition at 100 µM (thromboxane synthetase): 100% |
| O=S(=O)(NCCCCn1ccnc1)c1ccc(Br)cc1 [4-Bromo-N-[4-(1H-imidazol-1-yl)butyl]benzenesulfonamide] |  | 91% |  |
| O=S(=O)(NCCc1cccnc1)c1ccc(Cl)cc1 [4-Chloro-N-[2-(3-pyridyl)ethyl]benzenesulfonamide] | 109 mm Hg | 90% |  |
| O=S(=O)(NCCCn1cncn1)c1ccc(Cl)cc1 [4-Chloro-N-[3-(1H-1,2,4-triazol-1-yl)propyl]benzenesulfonamide] | 127 mm Hg |  |  |
| O=S(=O)(NCCCn1ccnc1)c1ccc(Cl)cc1 [4-Chloro-N-[3-(1H-imidazol-1-yl)propyl]benzenesulfonamide] | 120 mm Hg | 99% |  |
| O=S(=O)(NCCCCn1ccnc1)c1ccc(Cl)cc1 [4-Chloro-N-[4-(1H-imidazol-1-yl)butyl]benzenesulfonamide] |  | 94% |  |
| O=S(=O)(NCCCCCn1ccnc1)c1ccc(Cl)cc1 [4-Chloro-N-[5-(1H-imidazol-1-yl)pentyl]benzenesulfonamide hydrochloride] |  | 97% |  |
| O=S(=O)(NCCCCCn1ccnc1)c1ccc(Cl)cc1 [4-Chloro-N-[5-(1H-imidazol-1-yl)pentyl]benzenesulfonamide] | 119 mm Hg |  |  |
| O=S(=O)(NCCCCCCCCn1ccnc1)c1ccc(Cl)cc1 [4-Chloro-N-[8-(1H-imidazol-1-yl)octyl]benzenesulfonamide] | 132 mm Hg | 93% |  |
| O=S(=O)(NCCCn1cncn1)c1ccccc1 [N-[3-(1H-1,2,4-Triazol-1-yl)propyl]benzenesulfonamide] |  | 67% |  |
| COc1ccc(S(=O)(=O)NCCCn2ccnc2)cc1 [N-[3-(1H-Imidazol-1-yl)propyl]-4-methoxybenzenesulfonamide] |  | 100% |  |
| O=S(=O)(NCCCCn1ccnc1)c1ccccc1 [N-[4-(1H-Imidazol-1-yl)butyl]benzenesulfonamide] |  | 93% |  |
| COc1ccc(S(=O)(=O)NCCCCn2ccnc2)cc1 [N-[4-(1H-imidazol-1-yl)butyl]-4-methoxybenzenesulfonamide] | 134 mm Hg | 97% |  |
| CC(=O)Nc1ccc(S(=O)(=O)NCCCn2ccnc2)cc1 [N-[4-[[[3-(1H-Imidazol-1-yl)propyl]amino]sulfonyl]phenyl]acetamide] | 131 mm Hg | 73% |  |
| CC(=O)Nc1ccc(S(=O)(=O)NCCCCn2ccnc2)cc1 [N-[4-[[[4-(1H-imidazol-1-yl)butyl]amino]sulfonyl]phenyl]acetamide] | 116 mm Hg | 100% |  |
| CCCCC[C@H](O)/C=C/[C@@H]1[C@H]2C/C(=C/CCCC(=O)O)O[C@H]2C[C@H]1O [PGI2] |  |  | effect on ischemic myocardium (in words) [2]: beneficial effects |
| CCCCCC(O)/C=C/C1OC2CC(O2)C1C/C=C\CCCC(=O)O (centres unmarked) [TXA2] |  |  | effect of injection into coronary arteries (in words) [3]: causes myocardial ischemia and subendocardial necrosis; effect of injection into coronary arteries (in words) [4]: causes myocardial ischemia and subendocardial necrosis |
